Here are results for one compound from ChEMBL document CHEMBL2203081 (Bioorg Med Chem Lett, 2012).

Assay [1] addresses Serine/threonine-protein kinase SIK2 (Homo sapiens) (UniProt Q9H0K1). Put plainly: Inhibition of SIK2 assessed as residual activity at 10 uM relative to control.
In assay [2] the target is T1, Serine/threonine-protein kinase STK11 (Homo sapiens) (UniProt Q15831).
T1 sequence (whole entry): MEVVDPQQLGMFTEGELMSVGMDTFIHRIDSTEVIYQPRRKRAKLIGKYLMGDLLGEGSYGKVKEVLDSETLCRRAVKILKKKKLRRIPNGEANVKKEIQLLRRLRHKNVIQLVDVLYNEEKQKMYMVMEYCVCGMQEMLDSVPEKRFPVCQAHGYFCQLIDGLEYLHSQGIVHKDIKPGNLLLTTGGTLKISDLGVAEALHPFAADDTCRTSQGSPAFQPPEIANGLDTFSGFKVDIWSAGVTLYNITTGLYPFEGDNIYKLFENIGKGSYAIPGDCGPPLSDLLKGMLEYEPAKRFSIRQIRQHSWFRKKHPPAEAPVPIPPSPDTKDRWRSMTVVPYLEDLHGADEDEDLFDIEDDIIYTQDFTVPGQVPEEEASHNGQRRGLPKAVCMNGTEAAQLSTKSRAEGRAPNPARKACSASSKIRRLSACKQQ
Nature of the assay: Inhibition of LKB1 assessed as residual activity at 10 uM relative to control.

Assay [3] concerns the target Interleukin-1 receptor-associated kinase 4 (Homo sapiens) (UniProt Q9NWZ3). Put plainly: Inhibition of IRAK4 assessed as residual activity at 10 uM relative to control.

Chain of Interleukin-1 receptor-associated kinase 4 (Homo sapiens) (Q9NWZ3 whole entry): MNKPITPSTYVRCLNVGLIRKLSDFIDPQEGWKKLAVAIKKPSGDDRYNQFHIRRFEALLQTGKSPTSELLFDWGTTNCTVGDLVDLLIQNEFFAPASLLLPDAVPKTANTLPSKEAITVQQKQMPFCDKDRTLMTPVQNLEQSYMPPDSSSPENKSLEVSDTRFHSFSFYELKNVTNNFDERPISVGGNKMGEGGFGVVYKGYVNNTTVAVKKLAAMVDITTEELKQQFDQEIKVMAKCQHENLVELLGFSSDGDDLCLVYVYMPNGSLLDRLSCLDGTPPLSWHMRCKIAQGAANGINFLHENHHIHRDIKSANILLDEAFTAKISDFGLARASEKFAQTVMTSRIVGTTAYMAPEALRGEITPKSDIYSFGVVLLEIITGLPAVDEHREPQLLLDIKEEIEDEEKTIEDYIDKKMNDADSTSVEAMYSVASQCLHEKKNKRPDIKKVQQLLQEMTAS
Chain of Serine/threonine-protein kinase SIK2 (Homo sapiens) (Q9H0K1 whole entry, looked up): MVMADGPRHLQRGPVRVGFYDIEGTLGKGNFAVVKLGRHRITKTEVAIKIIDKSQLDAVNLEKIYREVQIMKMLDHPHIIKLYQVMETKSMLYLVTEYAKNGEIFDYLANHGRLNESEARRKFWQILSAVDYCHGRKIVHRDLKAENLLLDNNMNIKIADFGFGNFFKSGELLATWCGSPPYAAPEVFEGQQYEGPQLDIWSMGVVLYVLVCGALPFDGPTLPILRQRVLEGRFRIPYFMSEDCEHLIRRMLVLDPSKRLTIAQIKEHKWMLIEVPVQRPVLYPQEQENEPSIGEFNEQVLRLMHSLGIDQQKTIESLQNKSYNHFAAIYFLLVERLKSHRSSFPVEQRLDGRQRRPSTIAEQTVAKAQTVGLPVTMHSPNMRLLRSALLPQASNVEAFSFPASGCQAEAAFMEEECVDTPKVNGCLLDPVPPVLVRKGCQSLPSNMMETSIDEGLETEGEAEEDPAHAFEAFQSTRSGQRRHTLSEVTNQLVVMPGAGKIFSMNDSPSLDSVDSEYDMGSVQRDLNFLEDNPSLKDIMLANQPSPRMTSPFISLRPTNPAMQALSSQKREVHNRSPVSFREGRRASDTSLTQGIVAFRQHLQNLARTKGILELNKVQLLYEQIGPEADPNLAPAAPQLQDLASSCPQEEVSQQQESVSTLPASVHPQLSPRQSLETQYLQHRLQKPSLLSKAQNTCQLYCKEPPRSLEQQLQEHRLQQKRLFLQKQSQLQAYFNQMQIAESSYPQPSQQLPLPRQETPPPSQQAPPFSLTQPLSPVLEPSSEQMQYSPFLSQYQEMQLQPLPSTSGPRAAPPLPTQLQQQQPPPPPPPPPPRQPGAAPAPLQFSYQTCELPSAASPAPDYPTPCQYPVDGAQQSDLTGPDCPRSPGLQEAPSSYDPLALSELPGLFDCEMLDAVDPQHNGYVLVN

For the compound `O=C(Nc1cccnc1)c1cc(-c2ccnc(F)c2)ccc1OCc1ccccc1`, the Activity in assay [1] is 26%; in assay [2] it was 71%; in assay [3] it was 58%.
